Source: patent US20240382487A1, “NOVEL COPI/ARF1-LIPOLYSIS PATHWAY INHIBITOR AND COMPOUND FOR ERADICATING CANCER STEM CELLS AND INDUCING DAMP-MEDIATED ANTI-TUMOR IMMUNE RESPONSE” (FUDAN UNIVERSITY, priority 2020, published 2024)
Read-outs that look alike come from different tables or passages of the source.

How the values were obtained:
[1] = tested on: colorectal cancer cell line HT29; assay: In vitro cell line screening, HT29; type: cell-based
Description: (§1) In different tumor cytotoxicity experiments in vitro (FIG. 2-FIG. 7), including colorectal cancer cell lines HT29 and LoVo cells, liver cancer cell Huh7, lung cancer cells H460 and A549, the arf1 inhibitor could all inhibit tumor cell growth (FIG. 2-FIG. 6), and there was a dose-dependent manner (FIG. 7).

[2] = tested on: colorectal cancer cell line LoVo; assay: In vitro cell line screening, LoVo; type: cell-based
Description: as §1

[3] = tested on: Drosophila stem cell tumors; assay: Drosophila screen (stem cell / intestinal tumors); type: in vivo
Description: (§2) We tested 10 reported Arf1 inhibitors (Bill et al., 2011; Boal et al., 2010; Feng et al., 2004; Newton et al., 2006; Ohashi et al., 2012; Sáenz et al., 2009; Sorieul et al., 2011; Viaud et al., 2007), including brefeldin A (BFA), Golgicide A (GCA), LM11, Secin16, Secin H3, Secin B7, Exo1, Exo2, LG8, and LG18, on Drosophila stem cell tumors and normal human bone marrow hematopoietic stem cells (HSCs).

4T1 breast carcinoma = assay: Vaccination model, drug-treated 4T1 cells in BALB/c mice; type: in vivo; set-up: unit not given here; conditions: 4T1, BALB/c mice; for tumor size, left side with drug treatment: cells treated with 10 μM Du 102
[4] = tested on: liver tumors in MYC-ON mice; assay: MYC-ON liver tumor model; type: in vivo
Description: We used the Tet system to generate transgenic mice conditionally expressing the myc pro-oncogene in hepatocytes, […] myc/lap TTA (lt2-myc) (shachaf et al., 2004). We crossed tre-myc mice with a transgenic line, lap TTA. in which the liver activator protein (LAP) promoter drives the expression of tetracycline trans-activator protein (TTA) in hepatocytes. We confirmed this by discontinuing the feeding of doxycycline (myc-ON) activated myc transgene expression in 3-week-old mice. Subsequently. all transgenic mice overexpressing myc succumbed to liver tumors with a mean latency to tumor onset of 12 weeks, as previously reported (shachaf et al., 2004). In this lap TTA/tet-off myc conditional transgenic mouse model, myc overexpression in adult mice reproducibly induces liver cancer, similar to hepatocellular carcinoma and/or hepatoblastoma. The transgenic tumor invades the entire liver locally and is frequently associated with malignant peritoneal effusions that spread to the thoracic cavity by metastasis and invade the lung parenchyma.
For the mouse liver tumor model, mating cages and weaning cages were administrated by a grain based rodent diet (Bio-Serv. Cat #14-727-450) containing 200 mg/kg doxycycline, and the mice were induced tumors at 6 weeks of age, by changing to a normal diet. Mice were divided into three groups, control, Du 101 treated and du102 treated. The control group was given 100 by gavage using a feeding tube 100 μl/10 g body weight (BW) 20% DMSO+80% corn oil. Du 101 treated groups were treated with 25 mg/ml Du 101. The stock solution was diluted 1:4 with corn oil to make the working solution. Dul02 treatment groups were treated with 25 mg/ml du102 stock solution diluted 1:4 with corn oil to make working solutions. The mixed working solution was administered to mice by gavage using a feeding tube. Starting from the second week of myc-0n, 5 injections per week ([…]) were given for 4 weeks, mice were monitored every 2 days, and 10 weeks later mice were euthanized and analyzed for tumor growth.
For the myc-on liver tumor model, antibodies were i.p. Mg/kg) was injected once a week for 5 consecutive weeks, the first Doxycycline was discontinued weekly after injection. Antibodies used to treat mice were as follows: anti-CD4 (clone GK1.5, BioXcell, Cat #BE0003-1), anti-CD8 a (clone 2.43, BioXcell, Cat #BE0061) Or […] rat IgG (bioxcell, cat #be0094) isotype control antibody. From the second week of myc-on initiation lasted for 4 weeks, Du 102 and DMSO were administered by gavage needle as described above, mice were monitored every 2 days, and 10 weeks later mice were euthanized and analyzed for tumor growth.
For the myc-on liver tumor model, antibodies were i.p. Injection once a week for 5 weeks, and doxycycline was discontinued weekly after the first injection. Antibodies used to treat mice were as follows: 100 ug/mouse Armenian hamster anti mouse PD1 (J43, bioxcell, cat #be0033-2) and 100 ug/mouse Armenian hamster isotype IgG (bioxcell. cat #bp0091) was used as controls. For 4 weeks from the second week of myc-on, Du 102 and DMSO were administered by gavage needle as described above, mice were monitored every 2 days. and 10 weeks later mice were euthanized and analyzed for tumor growth. Coadministration of anti-PD-1 antibodies may allow the use of lower, less toxic doses of du102, thus avoiding known side effects.

[5] = tested on: chemokines and T cell activation markers; assay: Chemokines and T cell activation markers by quantitative RT-PCR in MYC-ON mice; type: in vivo
Description: Chemokines and T cell activation markers were measured by quantitative RT-PCR in DMSO or du102 treated MYC-ON mice. CD8 T cell infiltration and immunostimulatory cytokine expression were increased as measured by quantitative RT-PCR. […] CCL5 and CXCL10 chemokines stimulate CD4+ and CD8+ lymphocytes tumor infiltration (Parkes et al., 2017), and CXCL10 and CXCL11 are T cell associated chemokines.

[6] = tested on: T cell activation markers; assay: T cell activation markers, 4T1 breast carcinoma in BALB/c mice; type: in vivo; conditions: DMSO 1.0
Description: Example 10. Du 102 Treatment Induces the Expression of T Cell Activation Markers of 4T1 Breast Cancer in BALB/c Mice

B16-F10 melanoma = assay: Lung metastasis of B16-F10 melanoma after tail vein injection; type: in vivo, C57B/6 mice; conditions: B16-F10 cells treated with 10 μM Du 102, tail vein injection; lungs removed 15 days after injection
Description: B16-f10 tumor cells (treated with DMSO or 10 μM Du 102 treatment) was transferred intravenously via tail vein injection. Lungs were removed 15 days after injection and fixed in fekete's solution overnight. Three investigators in a blinded manner statistically available (Table 17).

[7] = tested on: normal human bone marrow hematopoietic stem cells (HSCs)
Description: as §2

## 1H-indolo-5-carbaldehyde 5,6,7,8,9,10-hexahydrocycloocta[4,5]thieno[2,3-d]pyrimidin-4-ylhydrazone [Du 102]
[1]
  tumor suppressive effect: some tumor suppressive effect
[1]; listed as Dul02
  tumor suppressive effect: effective tumor suppressive effects
[2]
  tumor suppressive effect: some tumor suppressive effect
[2]; listed as Dul02
  tumor suppressive effect: effective tumor suppressive effects
[3]; Drosophila screen, FIG. 8
  in vivo tumor suppressive effects: good in vivo tumor suppressive effects
[3]; in vivo
  killing Drosophila stem cell tumors: effective
4T1 breast carcinoma; Day 0
  tumors on right side after vaccination on left side: 0
  tumor size, left side with drug treatment: 0
4T1 breast carcinoma; Day 5
  tumors on right side after vaccination on left side: 0
  tumor size, left side with drug treatment: 0
4T1 breast carcinoma; Day 10
  tumors on right side after vaccination on left side: 0
  tumor size, left side with drug treatment: 2.3
4T1 breast carcinoma; Day 15
  tumors on right side after vaccination on left side: 0
  tumor size, left side with drug treatment: 18.4
4T1 breast carcinoma; Day 20
  tumors on right side after vaccination on left side: 3.2
  tumor size, left side with drug treatment: 63.5
4T1 breast carcinoma; Day 25
  tumors on right side after vaccination on left side: 7.9
  tumor size, left side with drug treatment: 102.4
4T1 breast carcinoma; Day 30
  tumors on right side after vaccination on left side: 16.4
  tumor size, left side with drug treatment: 173.6
[4]
  survival time of myc-on mice: prolonged the survival time
[4]; Du102 + Anti-CD4
  anti-tumor effects (liver tumors): 69.5
[4]; Du102 + Anti-CD4/CD8
  anti-tumor effects (liver tumors): 89.7
[4]; Du102 + Anti-PD-1
  number of tumors: 4.4
[4]; Du102 + Isotype, Table 18
  anti-tumor effects (liver tumors): 27.5
[4]; Du102 + Isotype, Table 19
  number of tumors: 42.3
[4]; gavage, 5 per week for 4 weeks, analyzed 10 weeks later
  liver tumor numbers: 26.7
[5]; DMSO 1.0
  Ccl5 expression: 2.4
  Col22 expression: 2.5
  Cxcl11 expression: 2.8
  GzmA expression: 2.3
  GzmB expression: 1.9
  IL-1β expression: 2.5
  PD-L1 expression: 0.4
  Perforin expression: 2.2
[5]; DMSO 1.1
  Cxcl10 expression: 3.1
  INFγ expression: 3.2
[6]
  Gzm8 expression: 2.3
  GzmA expression: 2.2
  IL-1β expression: 2.2
  INFγ expression: 2.1
  PD-L1 expression: 0.5
  Perforin expression: 2.5
B16-F10 melanoma
  lung metastases (surface tumor number): 5
[7]
  toxicity (killing normal HSCs): relatively low toxicity
